Data from patent US20190000850A1, “COMBINATION CANCER THERAPY” (The Regents of the University of California, priority 2015, published 2019).
“Also recorded” adds a separate entry of the source.

Key:
CEM cells [1] = assay: Mass spectrometric assay of de novo (RNR) and salvage (dCK) contribution to dCTP and DNA-C; type: cell-based
Protocol: To analyze the differential utilization of de novo and nucleotide biosynthetic salvage pathways, cultured cells were incubated with stable isotope labeled DNA precursors. […] Extracted dNTP and DNA were analyzed in a triple quadrupole mass spectrometer (QQQ) using multiple reaction monitoring (MRM). The first (Q1) and third (Q3) quadrupoles function as mass filters while the second (Q2) quadrupole serves as a collision chamber. […] In Q2, the glycosidic bond of the selected dC is cleaved, releasing a protonated nucleobase (NB) fragment and a neutral deoxyribose (dR) molecule. The m/z specific NB fragments from dC is separated in Q3 and detected to generate ion chromatograms. […] Each identifier corresponded to a specific biosynthetic pathway and is defined as [x;y], where “x” is the number of heavy isotope-labeled atoms in NB and “y” is the number of heavy isotope atoms in dR. […] According to current biochemical maps of nucleotide metabolism, the [7;5] identifier can only arise from salvaging [U-^13C9,^15N3]dC into newly synthesized DNA. In contrast, a dC with a [0,5] identifier is a product of the de novo pathway. The ratio of the peak areas in the ion chromatograms of salvage [7;5] and de novo [0;5] identifiers describes the relative contributions of the two biosynthetic routes to the dCTP pool used for DNA replication.
(§4) The cells were incubated for 18 h or as indicated in the text before samples collection and processing.
Genomic DNA was extracted using the Quick-gDNA MiniPrep kit (Zymo Research, D3021) and hydrolyzed to nucleosides using the DNA Degradase Plus kit (Zymo Research, E2021) following manufacturer-supplied instructions. In the final step of DNA extraction, 50 μL of water was used to elute the DNA. A nuclease premix solution was prepared by mixing 10× buffer, DNA degradase Plus™ and water in the ratio of 2.5/1/1.5 (v/v/v). DNA hydrolysis reaction was prepared in mass spec vials by mixing 5 μL of the nuclease premix solution (5 U of enzyme) and 20 μL of eluted genomic DNA, the total volume becomes 25 μL. The samples were tapped and flicked downward prior to overnight before incubation at 37° C.
Cells were collected into microcentrifuge tube and centrifuged (450×g, 4 min, 4° C.). The supernatant was carefully aspirated. The cells were washed twice by the addition of 1 mL of cold PBS and centrifugation (450×g, 4 min 4° C.). PBS washes were aspirated. Thereafter, cells were lysed in 40 μL of 70% methanol/water (v/v), vortexed (30 s) and incubated on ice for 10 min. Then 40 μL of chloroform (Fisher) was added, vortexed (30 s) and incubated on ice for another 10 min. The samples were then centrifuged at max speed for 10 min at 4° C. Finally, the supernatant was transferred (≈25 μL) into a mass spec vial.
For genomic DNA and media analysis, an aliquot of DNA hydrolysis or media samples (20 μL) was injected directly onto a porous graphitic carbon column (Thermo Fisher Scientific Hypercarb, 100×2.1 mm, 5 μm particle size) equilibrated in solvent A (water/acetonitrile/formic acid, 95/5/0.2, v/v/v) and eluted (200 μL/min) with an increasing concentration of solvent B (acetonitrile/water/formic acid, 90/10/0.2, v/v/v): min/% B/flow rate (μL/min); 0/0/200, 5/0/200, 10/15/200, 20/15/200, 21/40/200, 25/50/200, 26/100/700, 30/100/700, 3I/O/700, 34/0/700, 35/0/200).

[2] = tested on: dCK activity in p185^BCR-ABLArf^−/− pre-B cells; assay: ^3H-FAC uptake to evaluate dCK activity; type: cell-based, mouse; details: after 1 h with 3-AP treatment
leukemia cell growth = assay: IC50 (cytotoxicity assay) of RNR inhibitors, Table 1; type: cell-based; details: 3-AP: cell type independent
Protocol: (§1) Cells were plated in a 384-well plate (1,000 cells/well for suspension cell lines and 500 cells/well for adherent cell lines in 30 μL). For suspension cell lines, the plate was incubated in 37° C. for 1 h to let the cells settle. For adherent cell lines, the plate was incubated overnight to allow the cells to seed. During incubation, drugs were diluted to desired concentration by serial dilution, vehicle condition was created by adding equivalent amount of DMSO. After incubation, 10 μL of diluted drugs were added to each well, and incubated for 72 h. After incubation, Cell TiterGlo reagent was added to each well according to manufacturer's instructions (Promega, CellTiter-Glo® Luminescent Cell Viability Assay). The plates were shaken for 2 min and incubated in dark for 8 min. Luminescence readings were obtained with luminometer (Molecular devices, SpectraMax).

[3] = tested on: p185^BCR-ABLArf^−/− pre-B cells; assay: dCTP pool and DNA-C measurement with [U-^13C9,^15N3]dC and [U-^13C6]glucose; type: cell-based, mouse; details: 3, 6, 9 and 12 h treatment
Protocol: Therefore, p185^BCR-ABLArf^−/− pre-B cells were labeled with [U-^13C9,^15N3]dC and [U-^13C6]glucose to measure the contribution of salvage pathway via dCK and de novo pathway via RNR, respectively.
as §4

CEM cells [4] = assay: Inhibition of CEM cell growth by RNR inhibitors, 72 h; type: cell-based
Protocol: as §1

CEM T-ALL cells = assay: ssDNA (F7-26) and pH2A.X measurement by FACS; type: cell-based; details: 3-AP 500 nM; 0.5, 4 and 18 h
Protocol: Cells were harvested and fixed and permeabilized with cytofix/cytoperm (BD biosciences) for 15 min in dark on ice. Cells were washed and subsequently resuspended in 100 μL 1× Perm/wash buffer (BD Sciences) for 15 min on ice. Cells were washed and subsequently resuspended in 50 μL with phospho-Histone H2A.X (Ser139) antibody conjugated to fluorochrome FITC (EMD Milipore, 1:800 dilutions in perm/wash) for 20 min in dark at ambient temperature. […] Cells were harvested and fixed with ice-cold methanol:PBS (6:1) for 24 h. Staining with F7-26 monoclonal antibody (Mab) was performed according to manufacturer's instructions (EMD Milipore). Fixed cells were resuspended in 250 μL of formamide and heated in a water bath at 75° C. for 10 min. Cells were then allowed to return to room temperature and then washed with 2 ml of 1% non-fat dry milk in PBS for 15 min. Subsequently, cells were resuspended in 100 μL of anti-ssDNA Mab F7-26 (EMD Milipore, 1:10 in 5% FBS in PBS) and incubated for 45 min at room temperature. Cells were washed with PBS and stained with 100 μL of fluorescence-conjugated goat anti-mouse IgM antibody (Santa Cruz Biotechnology, 1:50) for 45 min at room temperature.

[5] = Solubility study in phosphate buffer solution; type: physicochemical; details: aqueous buffer
CEM-R-EYFP = assay: DNA-G biosynthesis labeling in isogenic CEM-R line; type: cell-based; details: 6-TG treatment
Protocol: (§2) We utilized an isogenic cell line, CEM-R (Owen 1992), which lacks the enzymes dCK and HPRT that are necessary for the salvage pathways for DNA-G biosynthesis. CEM-R cells were engineered to express enhanced yellow fluorescent protein (CEM-R-EYFP, a negative control) and human HPRT (CEM-R-HPRT) and were confirmed by WB. The labeled media contained […] [U-^13C6]glucose to represent the de novo contribution and 5 μM [^15N5]dG to represent salvage pathways, particularly HPRT-dependent nucleobase salvaging. CEM-R-EYFP relied exclusively on the de novo pathway for the DNA-G biosynthesis. In contrast, CEM-R-HPRT utilized both de novo and nucleobase salvage pathways nearly equally.
(§3) The pMSCV-HPRT-IRES-EYFP and pMSCV-TK1-IRES-EYFP plasmids were generated by inserting the human HPRT and TK1 coding sequence into the multiple cloning sites of the MSCV-IRES-EYFP plasmid, respectively. The pMSCV-hdCK-IRES-EYFP plasmid was generated as previously described (Laing RE 2010). Amphotropic retroviruses were generated by transient co-transfection of the MSCV retroviral plasmid and pCL-10A1 packaging plasmid into Phoenix-Ampho packaging cells. To generate EL4-EYFP, EL4-TK1, CEM-R-EYFP, CEM-R-dCK and CEM-R-HPRT lines, parental cells underwent spin-fection with the respective amphotropic retrovirus and were then sorted by flow cytometry to isolate pure populations of transduced cells. […]

CEM-R-HPRT = assay: DNA-G biosynthesis labeling in isogenic CEM-R line; type: cell-based; details: 6-TG treatment
Protocol: as §2, §3

ATM = ATM (Homo sapiens, UniProt Q13315); details: cited from earlier work
[6] = tested on: Chk1 and Claspin phosphorylation in CEM T-ALL cells; assay: Phosphoproteomics after G1 release; type: cell-based, human; details: with and without DI-82; 6 and 12 h after G1 release
Protocol: Cells were treated with a CDK4/6 inhibitor, PD-0332991 (Selleckchem) for 18 h to arrest in G1 phase. Cells were then washed twice with PBS and released in fresh media with treatment at a density of 0.5×10^6 cells/ml. Cells were collected at time point 6 and 12 h and solubilized using 0.5% sodium deoxycholate, 12 mM sodium lauryl sarcosine, and 50 mM triethylammonium bicarbonate pH 8.0 with 1 mL per 5×10^7 cells with trituration and vortexing. Cell lysates were heated at 95° C. for 5 min and water bath sonicated at RT for 5 min. Bicinchoninic acid protein assay (Pierce) was performed to determine protein concentration. […] Light, medium, and heavylabeled peptides were mixed 1:1:1, diluted with 0.1% formic acid to a final concentration of 3% acetonitrile and analyzed using 180 min data-dependent nLC-MS/MS on Thermo Orbitrap XL as later discussed. […] 5 uL of each SCX fraction was analyzed using 180 min data-dependent reverse-phase nLC-MS/MS on Thermo Orbitrap XL equipped with Eksigent Spark autosampler, Eksigent 2D nanoLC, and Phoenix ST Nimbus dual column source. […] Peptides were analyzed over 180 min linear gradient of 0-40% mobile phase B (97% acetonitrile, 3% dimethylsulfoxide, and 0.1% formic acid) at 300 nL/min. […]

CCRF-CEM T-ALL cells = assay: EdU pulse assay of cell cycle progression after release from G1 arrest; type: cell-based; details: 12 h after release from G1
Protocol: Following release from G1, cells progress to early, mid and late S phase (defined as S1, S2 and S3, respectively) and G2/M. By 18 h following release in drug-free media, 42.5% of cells progressed to S3. […] Thus, dCK represents a resistance mechanism to ATR inhibition.
Cells were treated with a CDK4/6 inhibitor, PD-0332991 (Selleckchem) for 18 h to arrest in G1 phase. Subsequently, cells were washed and released into fresh media containing 10% FBS to monitor the progression of synchronized cells throughout the cell cycle by flow cytometry analysis.
For measuring cell cycle progression of synchronous population of cells, cells were first arrested in G1 phase, then washed and released in treated media. Before collecting and fixing cells at various time points, cells were pulse-labeled with 10 μM EdU for 1 h, and then click-labeled with azide-Alexa Fluor 647 (Invitrogen; Click-iT EdU Flow cytometry kit) according to manufacturer's protocol. Total DNA content was assessed by staining with FxCycle-Violet (Invitrogen) at 1 μg/mL final concentration in PBS containing 2% FBS.

PANC-1 PDAC cells = assay: Cell-Titer-Glo viability assay, 72 h; type: cell-based; details: Homo sapiens, PANC-1, read-out: IC50 of VE-822
Protocol: as §1

CEM T-ALL = assay: Cell-Titer-Glo viability assay, 72 h; type: cell-based; details: read-out: IC50 of VE-822
Protocol: as §1

[7] = tested on: BCR-ABL p185^+/Arf^−/− pre B-ALL cells; assay: Systemic pre B-ALL model in C57BL/6 mice, bioluminescence imaging, survival, body weight; type: in vivo; details: VE-822 40 mg/kg orally once daily
Protocol: All drugs for oral administration were solubilized in Prototype 9′ (PEG-200:Transcutol:Labrasol:Tween-80 mixed in 5:3:1:1 ratio) as single agents or in combination. For i.p. administration, drugs were solubilized in PEG-400 and 1 mM Tris-HCl at a 1:1 (v:v) ratio. Dasatinib (LC Laboratories) was solubilized in 80 mM citric acid (pH 3.1, Boulos et al.) and was administered at a dose of 10 mg/kg by oral gavage. 2×10^5 luciferase expressing p185 cells were injected intravenously into C57BL/6 female mice for leukemia induction. All drugs were administered starting 6 or, 7 days after intravenous cell inoculation, when animals had developed a significant leukemic burden as monitored by bioluminescence imaging (IVIS Bioluminescence Imaging scanner). Dosing schedules are indicated in the text and figure legends. Mice were observed daily; those that became moribund during the trials (paralysis of hind limbs, significant body weight loss) were sacrificed immediately. Kaplan-Meier curves and Bioluminescence quantifications were generated using GraphPad Prism (v6.0f for Mac).
Mice were anesthetized with 2% isoflurane followed by an intraperitoneal injection of 50 μL (50 mg/ml) substrate luciferin. Mice were imaged with IVIS Bioluminescence Imaging scanner after 10 minutes after luciferin administration. […]

ATM, sequence (Q13315 whole entry, species assumed): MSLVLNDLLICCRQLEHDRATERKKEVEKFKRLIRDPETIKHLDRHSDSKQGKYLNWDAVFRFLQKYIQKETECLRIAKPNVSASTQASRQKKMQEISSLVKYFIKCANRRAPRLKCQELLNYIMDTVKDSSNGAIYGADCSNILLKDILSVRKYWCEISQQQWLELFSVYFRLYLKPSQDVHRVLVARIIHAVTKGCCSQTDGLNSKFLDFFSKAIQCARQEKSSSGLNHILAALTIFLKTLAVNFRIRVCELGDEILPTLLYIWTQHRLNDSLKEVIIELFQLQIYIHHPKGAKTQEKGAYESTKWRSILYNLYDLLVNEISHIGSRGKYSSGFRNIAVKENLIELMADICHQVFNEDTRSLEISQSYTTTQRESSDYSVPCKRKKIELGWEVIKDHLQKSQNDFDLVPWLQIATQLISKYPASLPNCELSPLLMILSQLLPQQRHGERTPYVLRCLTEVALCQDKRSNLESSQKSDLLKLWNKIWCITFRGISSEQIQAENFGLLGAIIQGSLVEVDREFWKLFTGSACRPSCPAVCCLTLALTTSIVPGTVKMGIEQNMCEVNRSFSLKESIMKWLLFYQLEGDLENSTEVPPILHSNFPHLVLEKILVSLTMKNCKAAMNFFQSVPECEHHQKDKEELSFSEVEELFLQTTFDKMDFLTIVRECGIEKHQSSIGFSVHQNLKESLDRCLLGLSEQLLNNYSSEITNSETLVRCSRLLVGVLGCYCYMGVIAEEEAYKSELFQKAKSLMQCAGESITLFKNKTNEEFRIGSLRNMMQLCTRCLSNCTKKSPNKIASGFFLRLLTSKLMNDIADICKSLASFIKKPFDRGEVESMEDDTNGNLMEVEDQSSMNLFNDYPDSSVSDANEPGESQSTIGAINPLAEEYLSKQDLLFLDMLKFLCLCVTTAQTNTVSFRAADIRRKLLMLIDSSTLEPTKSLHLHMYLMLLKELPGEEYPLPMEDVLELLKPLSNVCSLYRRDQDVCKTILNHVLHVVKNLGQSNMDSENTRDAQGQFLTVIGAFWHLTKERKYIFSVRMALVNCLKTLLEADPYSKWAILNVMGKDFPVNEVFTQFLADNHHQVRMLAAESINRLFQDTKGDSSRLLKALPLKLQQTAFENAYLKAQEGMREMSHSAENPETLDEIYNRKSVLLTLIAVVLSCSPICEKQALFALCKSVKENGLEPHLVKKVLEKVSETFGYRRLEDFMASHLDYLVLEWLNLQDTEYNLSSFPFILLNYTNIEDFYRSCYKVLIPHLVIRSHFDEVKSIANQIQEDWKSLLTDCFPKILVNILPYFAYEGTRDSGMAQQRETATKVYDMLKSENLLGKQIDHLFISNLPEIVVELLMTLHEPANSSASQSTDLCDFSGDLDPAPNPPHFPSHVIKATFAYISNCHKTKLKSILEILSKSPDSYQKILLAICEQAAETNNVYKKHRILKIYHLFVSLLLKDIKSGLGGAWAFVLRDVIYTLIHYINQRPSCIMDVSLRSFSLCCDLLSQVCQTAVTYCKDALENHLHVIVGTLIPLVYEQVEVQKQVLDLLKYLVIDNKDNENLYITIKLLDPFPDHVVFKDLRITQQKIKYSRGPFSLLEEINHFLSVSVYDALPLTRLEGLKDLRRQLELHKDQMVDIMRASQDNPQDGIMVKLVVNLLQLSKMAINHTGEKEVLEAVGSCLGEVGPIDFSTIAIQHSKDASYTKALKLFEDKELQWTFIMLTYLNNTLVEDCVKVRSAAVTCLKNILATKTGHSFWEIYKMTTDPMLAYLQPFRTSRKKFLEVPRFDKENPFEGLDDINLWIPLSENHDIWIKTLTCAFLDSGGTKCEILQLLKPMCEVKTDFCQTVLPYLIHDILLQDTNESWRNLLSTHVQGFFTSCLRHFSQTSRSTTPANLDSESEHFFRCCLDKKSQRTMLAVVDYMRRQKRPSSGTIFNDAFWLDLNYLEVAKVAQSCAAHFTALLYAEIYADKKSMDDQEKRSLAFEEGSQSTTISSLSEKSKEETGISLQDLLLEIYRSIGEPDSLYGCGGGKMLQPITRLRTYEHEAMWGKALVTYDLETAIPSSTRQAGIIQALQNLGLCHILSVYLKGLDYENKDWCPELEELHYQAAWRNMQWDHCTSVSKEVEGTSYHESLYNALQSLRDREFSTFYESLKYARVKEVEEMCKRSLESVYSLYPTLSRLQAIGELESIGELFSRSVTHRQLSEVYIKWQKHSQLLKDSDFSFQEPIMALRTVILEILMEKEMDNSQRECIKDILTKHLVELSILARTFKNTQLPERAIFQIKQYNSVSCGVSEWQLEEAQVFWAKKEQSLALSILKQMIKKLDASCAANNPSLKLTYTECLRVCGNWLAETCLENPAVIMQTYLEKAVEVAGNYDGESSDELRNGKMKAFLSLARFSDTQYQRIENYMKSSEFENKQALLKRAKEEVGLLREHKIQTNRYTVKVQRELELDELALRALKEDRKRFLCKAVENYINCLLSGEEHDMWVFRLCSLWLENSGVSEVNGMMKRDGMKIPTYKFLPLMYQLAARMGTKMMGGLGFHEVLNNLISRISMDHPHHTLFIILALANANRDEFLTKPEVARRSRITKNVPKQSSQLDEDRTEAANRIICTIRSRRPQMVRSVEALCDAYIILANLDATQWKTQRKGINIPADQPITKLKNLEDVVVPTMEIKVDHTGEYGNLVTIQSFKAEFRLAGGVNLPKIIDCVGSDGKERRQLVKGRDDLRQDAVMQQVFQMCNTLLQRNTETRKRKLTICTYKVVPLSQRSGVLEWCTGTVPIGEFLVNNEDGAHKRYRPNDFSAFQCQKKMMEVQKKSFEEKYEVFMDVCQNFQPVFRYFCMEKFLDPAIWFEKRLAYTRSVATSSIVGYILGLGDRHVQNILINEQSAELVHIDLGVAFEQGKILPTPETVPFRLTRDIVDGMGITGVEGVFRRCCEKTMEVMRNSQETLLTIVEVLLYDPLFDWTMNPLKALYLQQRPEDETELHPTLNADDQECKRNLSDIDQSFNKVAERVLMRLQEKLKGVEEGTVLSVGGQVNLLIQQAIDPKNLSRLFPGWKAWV

## NC(=S)N/N=C/c1ncccc1N [3-AP, 3-aminopyridine-2-carboxyaldehyde-thiosemicarbazone]
CEM cells [1]; 3-AP at 500 nM, 18 h
  effect on de novo dCTP pool: did not affect
  increase in salvage dCTP pool: 2 fold
[2]
  increase in ^3H-FAC uptake: ~2.5 fold
Leukemia cell growth
  IC50: 1310 nM
[3]
  dCTP pool: increased their dCTP pool
CEM cells [4]
  IC50 lower than the other RNR inhibitors (dT, GaM, HU): 50 to 150 fold
CEM T-ALL cells
  RS and DNA damage biomarker expression (ssDNA, pH2A.X), words: minimally induced
[5]
  solubility: < 300 µg/mL

## Nc1nc2nc[nH]c2c(=S)[nH]1 [6-thioguanine]
CEM-R-EYFP
  DNA-G biosynthesis: remained unaffected
CEM-R-HPRT
  decrease of de novo and salvage pathway labeling of DNA-G: ~10 fold

## CNCc1ccc(-c2cc(-c3nc(-c4ccc(S(=O)(=O)C(C)C)cc4)cnc3N)on2)cc1 [VE-822]
ATM
  IC50: 34000 nM
[6]
  phosphorylation of Chk1 and Claspin compared to untreated cells: decreased phosphorylation
CCRF-CEM T-ALL cells
  decrease in the number of cells in S2: 16%
CEM cells [1]; G1 released CEM cells
  effect on dCTP pool levels compared to untreated: did not significantly impact
  total DNA-C labeling, less than untreated controls: 30%
PANC-1 PDAC cells
  IC50: 3000 nM
CEM T-ALL
  IC50: ~300 nM
[7]
  efficacy of single agent therapy in vivo: not capable of eradicating p185 cells in vivo; also recorded: marginally efficacious
